Read-outs that look alike come from different tables or passages of the source. Numbered stars: 1 amine (or outer) side, 2 acyl side, 3 side chain; on linkers, the order of the positions; unused ones are H or OH. Square brackets hold non-standard residues; d marks the D form. Peptide text beside a SMILES is read from it. * marks the point of attachment. Dap(Nα-HOOC(CH2)16CO)OH = O=C(O)CCCCCCCCCCCCCCCCC(=O)N[C@@H](CN*)C(=O)O; Bip = N[C@@H](Cc1ccc(-c2ccccc2)cc1)C(=O)O; X1 = C[C@@](CCc1ccccc1)(N[*:1])C(=O)[*:2]; αMePhe(2-F) = C[C@](N)(Cc1ccccc1F)C(=O)O; αMeP = C[C@@]1(C(=O)O)CCCN1; AEEA = NCCOCCOCC(=O)O; Aib = CC(C)(N)C(=O)O

In this assay the target is T1, hGLP1 receptor (Homo sapiens, UniProt P43220).
T1 construct: expressed in transfected cells; host or cells: HEK (human embryonic kidney) cells co-expressing hGLP1 receptor and CRE-Luciferase
Kind of assay: cAMP HTRF agonist assay in HEK cells co-expressing hGLP1 receptor and CRE-Luciferase. The format is cell-based. The protocol:
Human embryonic kidney cells (HEK) co-expressing the hGLP1 receptor and CRE-Luciferase construct were used to determine agonist potency in this assay. The cells were thawed briefly at 37° C., transferred to a sterile tube and re-suspended in complete media at 37° C. Cells were centrifuged at 1000 rpm for 5 minutes and cells collected; cells were re-suspended in assay buffer consisting of DPBS (GIBCO) with 500 μM of the phosphodiesterase inhibitor IBMX. […] The optimal cell density was determined to be 1000 cells/well; cells were added to wells in 384-well plates containing appropriate pre-prepared dilutions of compounds (test peptides or reference compound exendin-4), sealed and incubated with CO2 for 30 min. Test peptide solutions were diluted from 10 mM stock solutions; for most peptides an initial run was performed in duplicate from a maximal concentration of 1.0 μM, with 11 concentrations tested for each peptide using serial 1:3 dilution from this maximal concentration. […] The agonist assay was a homogeneous time-resolved fluorescence (HTRF) assay (Cisbio).
Following incubation of the cells for 30 minutes with test or reference peptides, 5 μL of the cAMP acceptor cAMP-d2, prepared previously as a working solution from frozen stock (1:20 dilution), was added to each well of the assay plate, along with 5 μL of anti-cAMP antibody-cryptate working solution (diluted 1:20 from frozen stock). The wells were incubated for 1 hour at room temperature, and fluorescence was then read at 665 and 615 nm with an Envision reader with TRF laser. Data were saved and analyzed using Prism software (GraphPad). Concentration-response analysis was performed using 4-parameter logistic fits of the resulting data, and EC50 values obtained for each test and reference compound.
(Time-resolved FRET reads energy transfer from a long-lived donor to a nearby acceptor.)

Where [1] appears, read: cAMP EC50, nM (0.1% albumin), Table 4, 0.1% albumin.
[2] abbreviates: cAMP EC50, nM (0.1% albumin), Table 6, 0.1% albumin.

T1 sequence (P43220 24-463): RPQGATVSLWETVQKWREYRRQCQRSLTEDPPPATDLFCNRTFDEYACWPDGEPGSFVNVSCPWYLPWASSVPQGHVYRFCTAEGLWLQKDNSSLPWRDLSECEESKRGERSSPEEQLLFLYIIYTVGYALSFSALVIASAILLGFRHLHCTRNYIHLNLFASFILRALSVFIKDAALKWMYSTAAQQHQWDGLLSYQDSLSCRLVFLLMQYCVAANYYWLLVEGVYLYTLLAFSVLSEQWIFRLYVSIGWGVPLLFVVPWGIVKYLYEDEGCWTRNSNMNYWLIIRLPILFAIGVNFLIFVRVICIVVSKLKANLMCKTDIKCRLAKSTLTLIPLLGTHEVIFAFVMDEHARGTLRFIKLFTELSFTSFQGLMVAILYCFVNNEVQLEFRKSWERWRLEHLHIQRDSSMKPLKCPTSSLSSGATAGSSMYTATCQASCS

A word on the EC50: it is the concentration giving half of the maximal effect. As to `C[C@@H](O)[C@H](NC(=O)CNC(=O)[C@H](CCC(=O)O)NC(=O)C(C)(C)NC(=O)[C@H](Cc1c[nH]cn1)NC(=O)CN)C(=O)N[C@@H](Cc1ccccc1)C(=O)N[C@H](C(=O)N[C@@H](CO)C(=O)N[C@@H](CC(=O)O)C(=O)N[C@@H](Cc1ccc(-c2ccccc2)cc1)C(=O)N[C@@H](Cc1ccc(-c2ccccc2)cc1)C(N)=O)[C@@H](C)O` [2-3, H2N-Gly-His-Aib-Glu-Gly-Thr-Phe-Thr-Ser-Asp-Bip-Bip-C(O)NH2] (H-GH[Aib]EGTFTSD[Bip][Bip]-NH2), the EC50 under setting [1] amounted to 21.1 nM.
With `C[C@@H](O)[C@H](NC(=O)CNC(=O)[C@H](CCC(=O)O)NC(=O)C(C)(C)NC(=O)[C@@H](N)Cc1c[nH]cn1)C(=O)N[C@@](C)(Cc1ccccc1F)C(=O)N[C@H](C(=O)N[C@@H](CO)C(=O)N[C@@H](CC(=O)O)C(=O)N[C@@H](Cc1ccc(-c2ccccc2)cc1)C(=O)N[C@H](Cc1ccc(O)cc1)C(N)=O)[C@@H](C)O` [(D)-4-41, H2N-His-Aib-Glu-Gly-Thr-α-MePhe(2-F)-Thr-Ser-Asp-Bip-D-Tyr-C(O)NH2] (H-H[Aib]EGT[αMePhe(2-F)]TSD[Bip][dY]-NH2), the EC50 under setting [2] was determined as 130 nM.
Consider `C[C@@H](O)[C@H](NC(=O)CNC(=O)[C@H](CCC(=O)O)NC(=O)C(C)(C)NC(=O)[C@H](Cc1c[nH]cn1)NC(=O)[C@@H](N)CCC(=O)O)C(=O)N[C@@H](Cc1ccccc1)C(=O)N[C@H](C(=O)N[C@@H](CO)C(=O)N[C@@H](CC(=O)O)C(=O)N[C@@H](Cc1ccc(-c2ccccc2)cc1)C(=O)N[C@@H](Cc1ccc(-c2ccccc2)cc1)C(N)=O)[C@@H](C)O` [2-2, H2N-Glu-His-Aib-Glu-Gly-Thr-Phe-Thr-Ser-Asp-Bip-Bip-C(O)NH2] (H-EH[Aib]EGTFTSD[Bip][Bip]-NH2), for which, under setting [1], a half-maximal response (EC50) required 40.1 nM.
As for `C[C@@H](O)[C@H](NC(=O)CNC(=O)[C@H](CCC(=O)O)NC(=O)[C@]1(C)CCCN1C(=O)[C@@H](N)Cc1c[nH]cn1)C(=O)N[C@@](C)(Cc1ccccc1F)C(=O)N[C@H](C(=O)N[C@@H](CO)C(=O)N[C@@H](CC(=O)O)C(=O)N[C@@H](Cc1ccc(-c2ccccc2)cc1)C(=O)N[C@@H](Cc1ccc(-c2ccccc2)cc1)C(=O)NC(C)(C)C(=O)NCCOCCOCC(=O)NCCOCCOCC(=O)NC[C@H](NC(=O)CCCCCCCCCCCCCCCCC(=O)O)C(=O)O)[C@@H](C)O` [4-63, H2N-His-α-MePro-Glu-Gly-Thr-α-MePhe(2-F)-Thr-Ser-Asp-Bip-Bip-C(O)NH-RY19] (H-H[αMeP]EGT[αMePhe(2-F)]TSD[Bip][Bip][Aib][AEEA][AEEA]-{Dap(Nα-HOOC(CH2)16CO)OH}), the EC50 under setting [2] stood at 1.2 nM.
Under “cAMP EC50, nM (0.1% albumin), Table 3, 0.1% albumin”, `C[C@@H](O)[C@H](NC(=O)CNC(=O)C(C)(C)NC(=O)C(C)(C)NC(=O)[C@@H](N)Cc1c[nH]cn1)C(=O)N[C@@](C)(Cc1ccccc1F)C(=O)N[C@H](C(=O)N[C@@H](CO)C(=O)N[C@@H](CC(=O)O)C(=O)N[C@@H](Cc1ccc(-c2ccccc2)cc1)C(=O)N[C@@H](Cc1ccc(-c2ccccc2)cc1)C(N)=O)[C@@H](C)O` [3-31, H2N-His-Aib-Aib-Gly-Thr-αMePhe(2-F)-Thr-Ser-Asp-Bip-Bip-C(O)NH2] (H-H[Aib][Aib]GT[αMePhe(2-F)]TSD[Bip][Bip]-NH2) returned an EC50 of 4.9 nM.
With `C[C@@H](O)[C@H](NC(=O)CNC(=O)[C@H](CCC(=O)O)NC(=O)C(C)(C)NC(=O)[C@@H](N)Cc1c[nH]cn1)C(=O)N[C@@](C)(Cc1ccccc1F)C(=O)N[C@H](C(=O)N[C@@H](CO)C(=O)N[C@@H](CC(=O)O)C(=O)N[C@@](C)(CCc1ccccc1)C(=O)N[C@@H](Cc1ccc(-c2ccccc2)cc1)C(N)=O)[C@@H](C)O` [4-3, H2N-His-Aib-Glu-Gly-Thr-α-MePhe(2-F)-Thr-Ser-Asp-α-MeHph-Bip-C(O)NH2] (H-H[Aib]EGT[αMePhe(2-F)]TSD[X1][Bip]-NH2), the EC50 (Table 5, 0% albumin, read-out: cAMP EC50, nM (0% albumin)) worked out at 184 nM.
